{
  "source": "patent US8431541B2",
  "about": "“Alpha-amylase inhibitors: the montbretins and uses thereof” (The University of British Columbia, priority 2007, dated 2013)",
  "key": {"[1]": {"target": "T1, human pancreatic α-amylase (HPA) (Homo sapiens, UniProt P04746)", "T1 sequence (P04746 16-511)": "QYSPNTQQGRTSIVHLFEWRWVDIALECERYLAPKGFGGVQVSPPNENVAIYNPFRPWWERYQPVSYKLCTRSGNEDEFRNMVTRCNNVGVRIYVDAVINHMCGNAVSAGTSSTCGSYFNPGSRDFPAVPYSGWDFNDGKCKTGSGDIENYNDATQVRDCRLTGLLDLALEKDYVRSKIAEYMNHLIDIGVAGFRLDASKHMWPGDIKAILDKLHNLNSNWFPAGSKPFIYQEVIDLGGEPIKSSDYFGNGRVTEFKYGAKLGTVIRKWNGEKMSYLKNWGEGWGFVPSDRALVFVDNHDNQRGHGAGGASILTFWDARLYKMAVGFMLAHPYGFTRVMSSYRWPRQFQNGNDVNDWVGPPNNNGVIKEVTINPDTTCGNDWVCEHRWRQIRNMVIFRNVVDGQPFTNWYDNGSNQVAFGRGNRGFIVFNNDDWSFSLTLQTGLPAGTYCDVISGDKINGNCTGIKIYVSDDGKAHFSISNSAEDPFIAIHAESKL", "experiment": "Kinetic analysis of HPA inhibition", "format": "biochemical"}, "[2]": {"experiment": "Stability in simulated gastric fluid (SGF) by UPLC", "format": "in vitro ADME", "details": "positive control, 0.5 mg/ml, 37° C., 1 hour", "method": "(§1) The stability of montbretin A in both simulated intestinal fluid (SIF) and simulated gastric fluid (SGF) were analyzed via ultra performance liquid chromatography (UPLC). The instrument consisted of a Waters® Acquity™ UPLC system equipped with a PDA and a TQ detector in tandem. The 2 μL sample injection volume was passed through a Waters® Acquity™ BEH C18 column (1.7 μm, 2.1×100 mm), with mobile phases A and B consisting of water with 0.1% formic acid and acetonitrile with 0.1% formic acid, respectively. The mobile phases were delivered at a programmed linear gradient at a column temperature of 35° C. Linearity was evaluated using a set of montbretin A calibration standards with concentrations ranging from 10 to 100 μg/mL in water. […]\n(§2) To examine the gastrointestinal fluid activity, 0.5 mg/ml solutions of oleamide (positive control) in SGF or SIF were prepared by diluting a 100 μL aliquot of oleamide (50 mg/mL in 2-propanol) to 10 mL with either SGF or SIF and incubated in a 37° C. water bath for 1 or 3 hours, respectively. At time points of 1 or 3 hours, the sample was removed from the water bath and a 100 μL aliquot of the resulting solution was diluted to 1 mL with de-ionized water in a glass UPLC glass sample vial and analyzed by UPLC for oleamide content. […]"}, "[3]": {"experiment": "Stability in simulated intestinal fluid (SIF) by UPLC", "format": "in vitro ADME", "details": "positive control, 0.5 mg/ml, 37° C., 3 hours", "method": "as §1, §2"}, "[4]": {"experiment": "Aqueous solubility (observation)"}, "[5]": {"target": "T2, porcine pancreatic α-amylase (Sus scrofa, UniProt P00690)", "T2 sequence (P00690 16-511)": "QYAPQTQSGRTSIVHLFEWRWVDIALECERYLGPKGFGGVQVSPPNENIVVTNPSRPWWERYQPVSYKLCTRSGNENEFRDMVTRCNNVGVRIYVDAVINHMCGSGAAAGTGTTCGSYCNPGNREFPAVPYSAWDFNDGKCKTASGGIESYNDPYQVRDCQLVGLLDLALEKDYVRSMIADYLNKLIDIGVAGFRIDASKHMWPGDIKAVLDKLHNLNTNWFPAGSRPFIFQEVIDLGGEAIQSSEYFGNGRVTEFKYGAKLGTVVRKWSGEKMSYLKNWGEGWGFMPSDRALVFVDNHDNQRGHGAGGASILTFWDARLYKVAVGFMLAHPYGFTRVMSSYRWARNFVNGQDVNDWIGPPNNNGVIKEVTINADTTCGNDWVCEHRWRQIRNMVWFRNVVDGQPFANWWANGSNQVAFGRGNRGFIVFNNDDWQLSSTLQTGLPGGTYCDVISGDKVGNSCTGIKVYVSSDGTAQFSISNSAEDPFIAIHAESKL", "details": "Taderal et al. 2006; read-out: IC50, inhibition of porcine pancreatic α-amylase; cited from earlier work"}, "human salivary α-amylase": {"target": "T3, human salivary α-amylase (Homo sapiens, UniProt P0DUB6)", "T3 sequence (P0DUB6 16-511)": "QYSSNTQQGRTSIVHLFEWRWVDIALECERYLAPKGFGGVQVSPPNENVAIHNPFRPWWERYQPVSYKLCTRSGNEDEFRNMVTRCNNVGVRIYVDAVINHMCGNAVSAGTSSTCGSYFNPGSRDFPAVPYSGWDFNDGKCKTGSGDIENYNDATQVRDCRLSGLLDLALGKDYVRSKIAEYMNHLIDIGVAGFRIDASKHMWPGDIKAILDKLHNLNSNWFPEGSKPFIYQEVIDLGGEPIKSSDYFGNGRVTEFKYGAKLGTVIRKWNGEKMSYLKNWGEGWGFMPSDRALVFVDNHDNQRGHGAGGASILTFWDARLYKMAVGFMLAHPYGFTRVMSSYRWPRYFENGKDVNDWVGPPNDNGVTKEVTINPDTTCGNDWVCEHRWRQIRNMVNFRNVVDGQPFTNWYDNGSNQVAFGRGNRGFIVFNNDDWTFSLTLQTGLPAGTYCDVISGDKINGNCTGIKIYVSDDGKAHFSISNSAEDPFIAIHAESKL", "details": "Lo Piparo et al., J. Med. Chem. 2008; read-out: IC50, inhibition of human salivary α-amylase; cited from earlier work"}, "[6]": {"system": "control and STZ-diabetic rats", "experiment": "Acute starch tolerance test", "format": "in vivo, rat", "details": "STZ-diabetic rats, starch tolerance test; extracts 5 mg/kg", "method": "Twenty-four animals were obtained at 200-250 g of body weight and randomly divided into control and diabetic groups. Diabetes was induced by a single intravenous tail vein injection of streptozotocin 60 mg/kg in 0.9% normal saline. Control rats received normal saline injections only. Animals were subsequently divided into acarbose untreated and treated. […] Starch was obtained from Fisher Scientific and a 17.5% suspension was made in distilled water. The dose of starch given was […].\nThe animals were fasted overnight. A basal blood sample was collected (50 μl volume) and then at 30, 60, 90 and 120 minutes post drug administration. Starch and starch+acarbose was administered by oral gavage. Blood was centrifuged at 10,000 g×25 minutes and plasma collected for determination of glucose levels using a Beckman Glucose Analyzer II™. There was no difference in body weight among the groups. There was a significant increase in plasma glucose 30 and 60 minutes following starch administration in the diabetic untreated group only.\nThe twenty-four animals from Example 6 were used following a wash out period of one week. Animals were divided into montbretin A untreated and treated. The four treatment groups were: control, n=6, control+montbretin A, n=6, diabetic, n=6 and diabetic+montbretin A, n=6. The procedures used in Example 6 were employed. Montbretin A was dissolved in distilled water at a concentration of 10 mg/ml and given at a volume of 1 ml/kg. The dose of montbretin A given was 10 mg/kg. There was no difference in body weight among the groups. There was a significant increase in plasma glucose levels in the diabetic untreated group at 30 and 60 minutes following starch administration.\nA study was done to determine the effect of various amounts of montbretin A and montbretin extracts on plasma glucose levels in response to a starch challenge in STZ-diabetic rats. Diabetic animals used in the previous Examples were used following a wash out period of one week. The six experimental groups were: diabetic (D, n=3) diabetic+montbretin A (5 mg/kg), (DT5, n=3), diabetic+montbretin A (1 mg/kg), (DT1, n=3), diabetic+montbretin A (0.5 mg/kg), (DT0.5, n=3), diabetic+Crocosmia corm methanol extract (5 mg/kg), (DM, n=3) and diabetic+Crocosmia corm ethanol extract (5 mg/kg), (DE, n=2).\nMontbretin A was dissolved in distilled water at a concentration of 5, 1 or 0.5 mg/ml and given at a volume of 1 ml/kg. The methanol extract contained montbretin A at a concentration of 3.2 mg/ml and ethanol extract at a concentration of 1.6 mg/ml. These extracts were dried and resuspended in distilled water. There was no difference in body weight among the groups. […] Diarrhea occurred in 2 out 3 animals given the methanol extract and in 1 out of 2 animals given the ethanol extract. […]"}, "[7]": {"details": "range finder method, Dixon plot, fixed substrate concentration"}},
  "data": [
    {"compound": "CC1O[C@@H](O[C@@H]2CO[C@@H](Oc3c(O)cc(-c4oc5cc(O)cc(O)c5c(=O)c4O[C@@H]4OC(C)[C@H](O)[C@H](O)C4O[C@@H]4OC(COC(=O)/C=C/c5ccc(O)cc5)[C@@H](O)[C@@H](O)C4O[C@@H]4OC(CO)[C@@H](O)[C@@H](O)C4O)cc3O)C(O)[C@@H]2O)C(O)[C@@H](O)[C@H]1O", "note": "(some centres unmarked) [Montbretin B, montbretin B]", "values": [
      {"measurement": "Ki", "setting": "[1]; [7]", "result": "3.6 ± 0.1", "unit": "µM"}
    ]},
    {"compound": "CCCCCCCC/C=C\\CCCCCCCC(N)=O", "note": "[Oleamide, oleamide, reference compound]", "values": [
      {"measurement": "change of concentration after incubation in SGF", "setting": "[2]", "result": "significant decrease in concentration"},
      {"measurement": "change of concentration after incubation in SIF", "setting": "[3]", "result": "significant decrease in concentration"}
    ]},
    {"compound": "CCOC(=O)/C=C/c1ccc(O)c(O)c1", "note": "[ethyl caffeiate, reference compound]", "values": [
      {"measurement": "aqueous solubility", "setting": "[4]", "result": "limited aqueous solubility"},
      {"measurement": "mode of inhibition of HPA", "setting": "[1]; double reciprocal plot", "result": "non-competitive"},
      {"measurement": "Ki", "setting": "[1]; varied substrate and inhibitor concentrations, GraFit", "result": "1300 ± 100", "unit": "µM"}
    ]},
    {"compound": "O=c1c(O)c(-c2cc(O)c(O)c(O)c2)oc2cc(O)cc(O)c12", "note": "[myricetin]", "values": [
      {"measurement": "IC50", "setting": "[5]", "result": 380, "unit": "µM"},
      {"measurement": "aqueous solubility", "setting": "[4]", "result": "limited aqueous solubility"},
      {"measurement": "IC50", "setting": "human salivary α-amylase", "result": "> 9", "unit": "µM"}
    ]},
    {"compound": "montbretin A", "values": [
      {"measurement": "occurrence of diarrhea", "setting": "[6]", "result": "No diarrhea"}
    ]},
    {"compound": "montbretin C", "values": [
      {"measurement": "Ki", "setting": "[1]; [7]", "result": "6.1 ± 0.1", "unit": "µM"}
    ]}
  ]
}
